From patent US12516293B2, “Reagents and methods with Wnt agonists and bioactive lipids for generating and expanding cardiomyocytes” (The Board of Trustees of the Leland Stanford Junior …, priority 2018, dated 2026)

Tests used:
Assay type in all cases: cell-based, human
hiPSC-CMs [1] = assay: hiPSC-CM expansion upon serial passaging
hiPSC-CMs [2] = assay: Sarcomere alignment and contractility on micropatterns
Protocol: Cells were plated on soft substrates with micropatterned proteins on top. After 3-6 days of culture high resolution movies (Sony Microscopy) were recorded for at least 10 individual cells per group and motion velocity analysis was processed digitally. After recordings, cells were fixed and used for immunohistochemistry and confocal imaging. Sarcomere alignment was quantified with Image J software. CM maturation is accompanied by the formation of highly structured sarcomere, bi- or multinucleation, and cell cycle exit (Bassat et al., 2017; Bersell et al., 2009; Senyo et al., 2014; Uygur and Lee, 2016). […] To address this, age-matched hiPSC-CMs exposed to media containing DMSO (CTR) were compared to ones that have undergone 3 passages in media containing 2.0 μM CHIR using various phenotypic assays of CM function. To assess sarcomere alignment, CHIR and CTR hiPSC-CMs on 7:1 aspect ratio micropatterns (Ribeiro et al., 2015) were cultured and immunostained with TnT and sarcomeric actinin antibodies.

[3] = system: AKT1/2/3 and other kinases; assay: Phospho-kinase array and western blot in CHIR-treated hiPSC-CMs
Protocol: Kinase phosphorylation levels were screened with a Proteome Profiler Human Phospho-Kinase Array Kit (R&D Systems) containing 43 human kinases and total amounts of 2 proteins. Validation was performed with regular western blotting. Total protein expression was measured with a gel imager (Biorad) and processed with pixel intensity software (Biorad).

Cc1c[nH]c(-c2cnc(NCCNc3ccc(C#N)cn3)nc2-c2ccc(Cl)cc2Cl)n1 [CHIR99021] was tested, and the “increase in the total cell number” value (hiPSC-CMs [1]; 2.0 μM CHIR from day 12, serial passaging) was “greater than 100 fold”, the “increase in CM number” value (hiPSC-CMs [1]; 2.0 μM CHIR from day 12, serial passaging, TnT+ cells vs DMSO) was “greater than 100 fold” and the cell death (hiPSC-CMs [1]; 2.0 μM CHIR, Caspase 3 staining) was “without notable cell death”. For the same compound, the “number of passages possible” value (hiPSC-CMs [1]; 2.0 μM CHIR, DMSO cells cease to proliferate after first passage) was “up to 5 times”, the “hiPSC-CMs generated from 2 million day 12 hiPSC-CMs” value (hiPSC-CMs [1]; CHIR treatment with serial passaging) was 300-900 million and the “time to confluence after passaging” value (hiPSC-CMs [1]; CHIR-treated early passage hiPSC-CMs) was 5 to 7 days. The “TnT purity during expansion” value (hiPSC-CMs [1]; expansion of beating hiPSC-CMs) was over 95%, the “CM purity with each passage (TnT+)” value (hiPSC-CMs [1]; flow cytometry, vs DMSO which decreased) was “maintain, if not slightly enrich” and the “sarcomere alignment and organization” value (hiPSC-CMs [2]; 3 passages in 2.0 μM CHIR vs age-matched CTR) was “markedly reduced alignment and organization of sarcomeres”. The contractile force generation (hiPSC-CMs [2]; CHIR-treated vs CTR cells) was “decreased force generation”, the “phosphorylation of HSP27 and p70S6K” value ([3]; CHIR) was “increased phosphorylation” and the “phosphorylation of growth suppressor P27” value ([3]; CHIR) was “subtle increase”. The “AKT1/2/3 phosphorylation at T308” value ([3]; screen of 43 kinases, CHIR) was “significant upregulation” and the “active form of AKT (pAKT T308)” value ([3]; western blot, CHIR vs DMSO) was “rapidly increased”.
